Measured values taken from patent US12077503B2, “Substituted cyclic amides and their use as herbicides” (FMC CORPORATION, priority 2015, dated 2024).

Experiments:
Assay type in all cases: in vivo
[1] = system: Galium (catchweed bedstraw, Galium aparine); test: Test A postemergence; settings: Galium, post-emergence, 240 h, Postemergence, read-out: Galium plant response rating (0 to 100 scale); for pest or weed control at 125 g/ha: 125 g ai/ha, visual rating about 10 d after treatment; for pest or weed control at 31 g/ha: 31 g ai/ha, 0 is no effect, 100 is complete control
Outline: (§1)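 Preemergence soil spray on seeded pots or post-emergence spray on 1–2 leaf plants, in loam–sand blend. Greenhouse ~10 d. Visual rating 0–100 against untreated plants.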

[2] = system: giant foxtail (Setaria faberii); test: Test A postemergence; settings: Setaria faberi, post-emergence, 240 h, Postemergence, read-out: Foxtail, Giant plant response rating (0 to 100 scale); for pest or weed control at 125 g/ha: 125 g ai/ha, visual rating about 10 d after treatment; for pest or weed control at 31 g/ha: 31 g ai/ha, 0 is no effect, 100 is complete control
Outline: as §1

corn (Zea mays) = test: Test A postemergence; settings: Zea mays, post-emergence, 240 h, Postemergence, read-out: Corn plant response rating (0 to 100 scale); for plant injury at 125 g/ha: 125 g ai/ha, visual rating about 10 d after treatment; for plant injury at 31 g/ha: 31 g ai/ha, 0 is no effect, 100 is complete control
Outline: as §1

[3] = system: wheat (Triticum aestivum); test: Test A postemergence; settings: Triticum aestivum, post-emergence, 240 h, Postemergence, read-out: Wheat plant response rating (0 to 100 scale); for plant injury at 125 g/ha: 125 g ai/ha, visual rating about 10 d after treatment; for plant injury at 31 g/ha: 31 g ai/ha, 0 is no effect, 100 is complete control
Outline: as §1

[4] = system: ryegrass, Italian (Italian ryegrass, Lolium multiflorum); test: Test A postemergence; settings: Lolium multiflorum, post-emergence, 240 h, Postemergence, read-out: Ryegrass, Italian plant response rating (0 to 100 scale); for pest or weed control at 125 g/ha: 125 g ai/ha, visual rating about 10 d after treatment; for pest or weed control at 31 g/ha: 31 g ai/ha, 0 is no effect, 100 is complete control
Outline: as §1

[5] = system: blackgrass (Alopecurus myosuroides); test: Test A postemergence; settings: Alopecurus myosuroides, post-emergence, 240 h, Postemergence, read-out: Blackgrass plant response rating (0 to 100 scale); for pest or weed control at 125 g/ha: 125 g ai/ha, visual rating about 10 d after treatment; for pest or weed control at 31 g/ha: 31 g ai/ha, 0 is no effect, 100 is complete control
Outline: as §1

[6] = system: barnyardgrass (Echinochloa crus-galli); test: Test A postemergence; settings: Echinochloa crus-galli, post-emergence, 240 h, Postemergence; for pest or weed control at 125 g/ha: 125 g ai/ha, visual rating about 10 d after treatment, read-out: Barnyardgrass plant response rating (0 to 100 scale, 0 no effect, 100 complete control); for pest or weed control at 31 g/ha: 31 g ai/ha, 0 is no effect, 100 is complete control, read-out: Barnyardgrass plant response rating (0 to 100 scale)
Outline: as §1

[7] = system: ragweed (common ragweed, Ambrosia elatior); test: Test A postemergence; settings: Ambrosia artemisiifolia, post-emergence, 240 h, Postemergence, read-out: Ragweed plant response rating (0 to 100 scale); for pest or weed control at 125 g/ha: 125 g ai/ha, visual rating about 10 d after treatment; for pest or weed control at 31 g/ha: 31 g ai/ha, 0 is no effect, 100 is complete control
Outline: as §1

Kochia (Kochia scoparia) [8] = test: Test A postemergence; settings: Bassia scoparia, post-emergence, 240 h, Postemergence, read-out: Kochia plant response rating (0 to 100 scale); for pest or weed control at 125 g/ha: 125 g ai/ha, visual rating about 10 d after treatment; for pest or weed control at 31 g/ha: 31 g ai/ha, 0 is no effect, 100 is complete control
Outline: as §1

[9] = system: pigweed (Amaranthus retroflexus); test: Test A postemergence; settings: Amaranthus retroflexus, post-emergence, 240 h, Postemergence, read-out: Pigweed plant response rating (0 to 100 scale); for pest or weed control at 125 g/ha: 125 g ai/ha, visual rating about 10 d after treatment; for pest or weed control at 31 g/ha: 31 g ai/ha, 0 is no effect, 100 is complete control
Outline: as §1

[10] = system: sedge, umbrella (small-flower umbrella sedge, Cyperus difformis); test: Test B flooded paddy test; settings: Cyperus difformis, 250 g ai/ha, Flood; 0 to 100 scale where 0 is no effect and 100 is complete control; read-out: Sedge, Umbrella plant response rating
Outline: (§2)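 Compound goes directly into floodwater once pots are flooded 3 cm above soil, targeting plants at two leaves; the water depth is then held for the test duration. Plants sit 13–15 d in a greenhouse and are rated visually, 100 denoting complete control.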

[11] = system: barnyardgrass (Echinochloa crus-galli); test: Test B flooded paddy test; settings: Echinochloa crus-galli, 250 g ai/ha, Flood; 0 to 100 scale where 0 is no effect and 100 is complete control; read-out: Barnyardgrass plant response rating
Outline: as §2

[12] = system: ducksalad (Heteranthera limosa); test: Test B flooded paddy test; settings: Heteranthera limosa, 250 g ai/ha, Flood; 0 to 100 scale where 0 is no effect and 100 is complete control; read-out: Ducksalad plant response rating
Outline: as §2

rice (Oryra sativa) = test: Test B flooded paddy test; settings: Oryza sativa, 250 g ai/ha, Flood; 0 to 100 scale where 0 is no effect and 100 is complete control; read-out: Rice plant response rating
Outline: as §2

[13] = system: giant foxtail (Setaria faberii); test: Test A preemergence; settings: Setaria faberi, pre-emergence, 240 h, 0 to 100 scale where 0 is no effect and 100 is complete control, read-out: Foxtail, Giant plant response rating; for pest or weed control at 31 g/ha: 31 g ai/ha, Preemergence; for pest or weed control at 125 g/ha: 125 g ai/ha, preemergence, visual injury rating, approximately 10 d
Outline: as §1

[14] = system: ryegrass, Italian (Italian ryegrass, Lolium multiflorum); test: Test A preemergence; settings: Lolium multiflorum, pre-emergence, 240 h, 0 to 100 scale where 0 is no effect and 100 is complete control, read-out: Ryegrass, Italian plant response rating; for pest or weed control at 31 g/ha: 31 g ai/ha, Preemergence; for pest or weed control at 125 g/ha: 125 g ai/ha, preemergence, visual injury rating, approximately 10 d
Outline: as §1

[15] = system: barnyardgrass (Echinochloa crus-galli); test: Test A preemergence; settings: Echinochloa crus-galli, pre-emergence, 240 h, 0 to 100 scale where 0 is no effect and 100 is complete control, read-out: Barnyardgrass plant response rating; for pest or weed control at 31 g/ha: 31 g ai/ha, Preemergence; for pest or weed control at 125 g/ha: 125 g ai/ha, preemergence, visual injury rating, approximately 10 d
Outline: as §1

[16] = system: ragweed (common ragweed, Ambrosia elatior); test: Test A preemergence; settings: Ambrosia artemisiifolia, pre-emergence, 240 h, 0 to 100 scale where 0 is no effect and 100 is complete control, read-out: Ragweed plant response rating; for pest or weed control at 31 g/ha: 31 g ai/ha, Preemergence; for pest or weed control at 125 g/ha: 125 g ai/ha, preemergence, visual injury rating, approximately 10 d
Outline: as §1

Kochia (Kochia scoparia) [17] = test: Test A preemergence; settings: Bassia scoparia, pre-emergence, 240 h, 0 to 100 scale where 0 is no effect and 100 is complete control, read-out: Kochia plant response rating; for pest or weed control at 31 g/ha: 31 g ai/ha, Preemergence; for pest or weed control at 125 g/ha: 125 g ai/ha, preemergence, visual injury rating, approximately 10 d
Outline: as §1

[18] = system: pigweed (Amaranthus retroflexus); test: Test A preemergence; settings: Amaranthus retroflexus, pre-emergence, 240 h, 0 to 100 scale where 0 is no effect and 100 is complete control, read-out: Pigweed plant response rating; for pest or weed control at 31 g/ha: 31 g ai/ha, Preemergence; for pest or weed control at 125 g/ha: 125 g ai/ha, preemergence, visual injury rating, approximately 10 d

Row | Structure (SMILES) | pest or weed control at 125 g/ha [1] [%] | pest or weed control at 31 g/ha [1] [%] | pest or weed control at 125 g/ha [2] [%] | pest or weed control at 31 g/ha [2] [%] | plant injury at 125 g/ha (corn (Zea mays)) [%] | plant injury at 31 g/ha (corn (Zea mays)) [%] | plant injury at 125 g/ha [3] [%] | plant injury at 31 g/ha [3] [%] | pest or weed control at 125 g/ha [4] [%] | pest or weed control at 31 g/ha [4] [%] | pest or weed control at 125 g/ha [5] [%] | pest or weed control at 31 g/ha [5] [%] | pest or weed control at 125 g/ha [6] [%] | pest or weed control at 31 g/ha [6] [%] | pest or weed control at 125 g/ha [7] [%] | pest or weed control at 31 g/ha [7] [%] | pest or weed control at 125 g/ha (Kochia (Kochia scoparia) [8]) [%] | pest or weed control at 31 g/ha (Kochia (Kochia scoparia) [8]) [%] | pest or weed control at 125 g/ha [9] [%] | pest or weed control at 31 g/ha [9] [%] | further results
1 | CN1C[C@H](c2cc(Cl)cc(Cl)c2)[C@@H](C(=O)Nc2ccccc2F)C1=O [Compound 1269] | 60 | 0 | 80 | 60 | 80 | 0 | 60 | 0 | 30 | 0 | 40 | 0 | 90 | 90 | 0 | 0 | 40 | 0 | 30 | 0 | pest or weed control at 250 g/ha [10]: 0%; pest or weed control at 250 g/ha [11]: 60%; pest or weed control at 250 g/ha [12]: 90%; pest or weed control at 250 g/ha (rice (Oryra sativa)): 0%; pest or weed control at 31 g/ha [13]: 90%; pest or weed control at 125 g/ha [13]: 90%; pest or weed control at 31 g/ha [14]: 0%; pest or weed control at 125 g/ha [14]: 30%; pest or weed control at 31 g/ha [15]: 70%; pest or weed control at 125 g/ha [15]: 90%; pest or weed control at 31 g/ha [16]: 0%; pest or weed control at 125 g/ha [16]: 0%; pest or weed control at 31 g/ha (Kochia (Kochia scoparia) [17]): 0%; pest or weed control at 125 g/ha (Kochia (Kochia scoparia) [17]): 50%; pest or weed control at 31 g/ha [18]: 0%; pest or weed control at 125 g/ha [18]: 0%
2 | Cc1c(F)cccc1NC(=O)[C@H]1C(=O)N(C)C[C@@H]1c1ccc2c(c1)C(F)(F)C(F)(F)O2 [Compound 1272] | 60 | 50 | 80 | 50 | 50 | 0 | 50 | 20 | 30 | 20 | 40 | 20 | 70 | 40 | 0 | 0 | 20 | 0 | 0 | 0 | pest or weed control at 250 g/ha [10]: 0%; pest or weed control at 250 g/ha [11]: 50%; pest or weed control at 250 g/ha [12]: 80%; pest or weed control at 250 g/ha (rice (Oryra sativa)): 20%; pest or weed control at 31 g/ha [13]: 90%; pest or weed control at 125 g/ha [13]: 90%; pest or weed control at 31 g/ha [14]: 20%; pest or weed control at 125 g/ha [14]: 60%; pest or weed control at 31 g/ha [15]: 90%; pest or weed control at 125 g/ha [15]: 90%; pest or weed control at 31 g/ha [16]: 0%; pest or weed control at 125 g/ha [16]: 0%; pest or weed control at 31 g/ha (Kochia (Kochia scoparia) [17]): 0%; pest or weed control at 125 g/ha (Kochia (Kochia scoparia) [17]): 20%; pest or weed control at 31 g/ha [18]: 0%; pest or weed control at 125 g/ha [18]: 0%
